According to patent US10344061B2, “Peptide exhibiting hair growth promoting activity and/or melanin production promoting activity and use thereof” (CAREGEN CO., LTD., priority 2016, dated 2019):
Ends that are not written are not given here.

Assays:
Format in all cases: cell-based
[1] = system: Human hair follicle dermal papilla cells; experiment: DPC proliferation assay (MTT); conditions: serum-free medium, 3 days incubation, absorbance 550 nm, FIGS. 1a, 1b
Method: Human hair follicle dermal papilla cells were seeded at a density of 2×10^3 cells/well on 96-well plates, followed by incubation overnight. After changing into serum-free medium, the cells were treated with the peptides, followed by incubation for 3 days, and then the wells were treated with 4 mg/ml MTT solution, followed by reaction for 4 hours. The resulting formazan was solubilized with DNSO, and then the absorbance was measured at 550 nm using a microplate reader.

β-catenin = experiment: β-Catenin activity test (western blotting); conditions: human hair follicle dermal papilla cells, 15 and 30 minutes, nuclear and cytoplasmic proteins, FIGS. 2a, 2b
Method: (§1) Human hair follicle dermal papilla cells were seeded at a density of 4×10^5 cells/well on 6-well plates, followed by incubation overnight. After changing into serum-free medium, the cells were treated with the peptides, followed by incubation for 15 and 30 minutes, and then the wells were harvested to isolate nuclear and cytoplasmic proteins. Western blotting was performed using β-catenin (Santa Cruz Biotechnology, USA) to compare β-catenin expression patterns.

GSK3β = experiment: β-Catenin activity test: GSK3β phosphorylation; conditions: human hair follicle dermal papilla cells, 15 and 30 minutes, western blotting; FIGS. 2a, 2b
PI3K = PI3K western blotting; conditions: human hair follicle dermal papilla cells, 15 and 30 minutes, FIGS. 3a, 3b
Method: as §1, with “to prepare the cell lysate.” for “to isolate nuclear and cytoplasmic proteins.”, “using PI3K antibodies” for “using β-catenin”, “USA) and phospho-ERK antibody (Cell Signaling Technology, USA)” for “USA)”, “compare protein” for “compare β-catenin”

ERK = experiment: p-ERK western blotting; conditions: human hair follicle dermal papilla cells, 15 and 30 minutes, FIGS. 3a, 3b
Method: as §1, with “to prepare the cell lysate.” for “to isolate nuclear and cytoplasmic proteins.”, “using PI3K antibodies” for “using β-catenin”, “USA) and phospho-ERK antibody (Cell Signaling Technology, USA)” for “USA)”, “compare protein” for “compare β-catenin”

Bcl-2 = Bcl-2 western blotting; conditions: human hair follicle dermal papilla cells, 24 hours, FIGS. 4a, 4b
Method: (§2) Human hair follicle dermal papilla cells were seeded at a density of 4×10^5 cells/well on 6-well plate, followed by incubation overnight. After changing into serum-free medium, the cells were treated with the peptides, followed by incubation for 24 hours, and then the wells were harvested to prepare cell lysate. Western blotting was performed using Bcl-2 and Bax antibodies (Santa Cruz Biotechnology, USA) to compare protein expression patterns.

Bax = Bax western blotting; conditions: human hair follicle dermal papilla cells, 24 hours, FIGS. 4a, 4b
Method: as §2

keratin-14 = experiment: Keratin-14 RT-PCR; conditions: human hair follicle dermal papilla cells, 24 hours, FIGS. 5a, 5b
Method: (§3) Human hair follicle dermal papilla cells were seeded at a density of 5×10^5 cells/well on 6-well plates, followed by incubation overnight. After changing into serum-free medium, the cells were treated with the peptides, followed by incubation for 24 hours, and then the wells were harvested to isolate RNA. After RNA quantification, cDNA synthesis was conducted using the cDNA synthesis kit (Intron, Korea), followed by PCR using PCR premix (Intron, Korea) and keratin-14 primers, and then electrophoresis was performed on 5% agarose gel to compare the mRNA expression level of the growth factor in respective sample treatment conditions.

VEGF = VEGF RT-PCR; conditions: human hair follicle dermal papilla cells, 24 hours, RT-PCR (mRNA); FIG. 6
Method: as §3, with “4×10^5” for “5×10^5”, “plate,” for “plates,”, “respective KGF and VEGF” for “keratin-14”, “levels” for “level”, “factors” for “factor”, “in” for “in respective”

KGF = KGF RT-PCR; conditions: human hair follicle dermal papilla cells, 24 hours, RT-PCR (mRNA); FIG. 6
Method: as §3, with “4×10^5” for “5×10^5”, “plate,” for “plates,”, “respective KGF and VEGF” for “keratin-14”, “levels” for “level”, “factors” for “factor”, “in” for “in respective”

TGF-β1 = TGF-β1 RT-PCR; conditions: human hair follicle dermal papilla cells, 24 hours, RT-PCR (mRNA); FIG. 7
Method: as §3, with “4×10^5” for “5×10^5”, “plate,” for “plates,”, “TGF-β1” for “keratin-14”, “in” for “in respective”

MSX2 = MSX2 RT-PCR; conditions: human hair follicle dermal papilla cells, 24 hours, RT-PCR (mRNA); FIG. 8
Method: as §3, with “4×10^5” for “5×10^5”, “plate,” for “plates,”, “MSX2” for “keratin-14”, “in” for “in respective”

[2] = system: melanocytes (B16F10 cell line); experiment: Melanin measurement assay; conditions: 72 hours, intracellular melanin, absorbance 490 nm, FIGS. 9a, 9b
Method: After melanocytes (B16F10 cell line) in 6-well plates were cultured in an incubator at 37° C. for 24 hours, the medium of each plate was removed and exchanged with a fresh medium, followed by treatment with the present peptide with different concentrations. After the incubation for 72 hours, the culture medium was removed, and the cells were taken off and then transferred into 1.5-ml tubes, followed by centrifugation at 13,000 rpm for 3 minutes. The supernatant was removed, and cell pellets were collected to observe melanin. Then, 150 μl of 2 M NaOH was added to the cell pellets to lyse intracellular melanin at 60° C. for 30 minutes. Then, 100 μl of the supernatant obtained from the lysis was added into each well of 96-well plates, and the absorbance was measured at 490 nm.

MITF [3] = experiment: Melanogenesis-related gene RT-PCR: MITF; conditions: B16F10 cell line, 72 hours, FIG. 10
Method: (§4) Melanocytes (B16F10 cell line) were incubated on 6-well culture plates for 24 hours, and were treated with the peptides of the present invention with different concentrations. After RNA was extracted from the cells incubated for 72 hours, cDNA was prepared. PCR was performed by using respective primers specific to MITF and tyrosinase, which are involved in melanogenesis, and the expression changes of the respective genes were observed.

tyrosinase [4] = experiment: Melanogenesis-related gene RT-PCR: tyrosinase; conditions: B16F10 cell line, 72 hours, FIG. 10
Method: as §4

TRP1 = experiment: Melanogenesis-related gene RT-PCR: TRP1; conditions: B16F10 cell line, 72 hours, FIG. 10 legend
MITF [5] = experiment: Melanogenesis-related protein western blotting: MITF; conditions: B16F10 cell line, 72-hour incubation, FIG. 11
Method: (§5) Melanocytes (B16F10 cell line) were incubated on 6-well culture plates for 24 hours, and were treated with the peptides of the present invention with different concentrations. After 72-hour incubation, the cells were lysed, and the cells were subjected to western blotting using specific antibodies (two types, both from Santa Cruz Biotechnology, USA) to investigate the expression of MITF and tyrosinase, which are factors involved in melanogenesis.

tyrosinase [6] = experiment: Melanogenesis-related protein western blotting: tyrosinase; conditions: B16F10 cell line, 72-hour incubation, FIG. 11
Method: as §5

ACTSSQLRSC (cysteine pairing not given here) [SEQ ID NO: 1]
increased: activity of β-catenin (β-catenin) | phosphorylation level of GSK3β (GSK3β) | expression of PI3K (PI3K) | phosphorylation of ERK (ERK) | expression of the anti-apoptotic protein Bcl-2 (Bcl-2) | mRNA expression of keratin-14 (keratin-14) | expression of VEGF (VEGF) | expression of KGF (KGF) | expression of TGF-β1 (TGF-β1) | expression of MSX2 (MSX2) | melanogenesis in melanocytes [2] | mRNA expression of MITF transcriptional factor (MITF [3]) | mRNA expression of tyrosinase enzyme (tyrosinase [4]) | protein expression of MITF transcription factor (MITF [5]) | protein expression of tyrosinase enzyme (tyrosinase [6])
decreased: expression of the apoptosis-related protein Bax (Bax)
stimulated in a dose-dependent manner: growth of human hair follicle dermal papilla cells [1]
increases: mRNA expression of TRP1 (TRP1)

KYLLVHRPYYRR [SEQ ID NO: 2]
stimulated in a dose-dependent manner: growth of human hair follicle dermal papilla cells [1]
decreased: expression of the apoptosis-related protein Bax (Bax)
increased: activity of β-catenin (β-catenin) | phosphorylation level of GSK3β (GSK3β) | expression of PI3K (PI3K) | phosphorylation of ERK (ERK) | expression of the anti-apoptotic protein Bcl-2 (Bcl-2) | mRNA expression of keratin-14 (keratin-14) | melanogenesis in melanocytes [2]
